Results reported in US20090233966A1, “Analogues of the Azinomycins as Anti-Tumour Agents and as Prodrugs” (School of Pharmacy, University of London, priority 2005, published 2009).
Entries after “also recorded” stand apart in the source; their conditions may differ.

What was measured:
Type in all cases: cell-based, human
RPMI-8226 = experiment: NCI 60 cell panel growth inhibition; details: Leukemia, read-out: anti-tumour activity GI50
Excerpt: (§1) Examples 6 and 7 make use of the NCl 60 cell panel. This is an in vitro cell line screening project providing direct support to the National Cancer Institute's USA Developmental Therapeutic Programme for anti cancer discovery. The methodolgy for the cell line's operation is described by Boyd et al in Drug Development Research 1995, 34, 91-109.

SK-MEL-28 = experiment: NCI 60 cell panel growth inhibition; details: MELAN, read-out: anti-tumour activity GI50
Excerpt: as §1

K562 = experiment: NCI 60 cell panel growth inhibition; details: Leukemia, read-out: anti-tumour activity GI50
Excerpt: as §1

UCC-62 = experiment: NCI 60 cell panel growth inhibition; details: MELAN, read-out: anti-tumour activity GI50
Excerpt: as §1

SKOV-3 = experiment: NCI 60 cell panel growth inhibition; details: OVAR, read-out: anti-tumour activity GI50
Excerpt: as §1

ACHN = experiment: NCI 60 cell panel growth inhibition; details: RENAL, read-out: anti-tumour activity GI50
Excerpt: as §1

MCF7 = experiment: NCI 60 cell panel growth inhibition; details: BREAST, read-out: anti-tumour activity GI50
Excerpt: as §1

SK-MEL-5 = experiment: NCI 60 cell panel growth inhibition; details: MELAN, read-out: anti-tumour activity GI50
Excerpt: as §1

SF-539 = experiment: NCI 60 cell panel growth inhibition; details: CNS, read-out: anti-tumour activity GI50
Excerpt: as §1

NCI-H460 = experiment: NCI 60 cell panel growth inhibition; details: NSCLC, read-out: anti-tumour activity GI50
Excerpt: as §1

DU-145 = experiment: NCI 60 cell panel growth inhibition; details: PROST, read-out: anti-tumour activity GI50
Excerpt: as §1

OVCAR-4 = experiment: NCI 60 cell panel growth inhibition; details: OVAR, read-out: anti-tumour activity GI50
Excerpt: as §1

786-0 = experiment: NCI 60 cell panel growth inhibition; details: RENAL, read-out: anti-tumour activity GI50
Excerpt: as §1

SN12C = experiment: NCI 60 cell panel growth inhibition; details: RENAL, read-out: anti-tumour activity GI50
Excerpt: as §1

OVCAR-3 = experiment: NCI 60 cell panel growth inhibition; details: OVAR, read-out: anti-tumour activity GI50
Excerpt: as §1

SK-MEL-2 = experiment: NCI 60 cell panel growth inhibition; details: MELAN, read-out: anti-tumour activity GI50
Excerpt: as §1

T-47D = experiment: NCI 60 cell panel growth inhibition; details: BREAST, read-out: anti-tumour activity GI50
Excerpt: as §1

OVCAR-8 = experiment: NCI 60 cell panel growth inhibition; details: OVAR, read-out: anti-tumour activity GI50
Excerpt: as §1

SR = experiment: NCI 60 cell panel growth inhibition; details: Leukemia, read-out: anti-tumour activity GI50
Excerpt: as §1

TK10 = experiment: NCI 60 cell panel growth inhibition; details: RENAL, read-out: anti-tumour activity GI50
Excerpt: as §1

HL-60(TB) = experiment: NCI 60 cell panel growth inhibition; details: Leukemia, read-out: anti-tumour activity GI50
Excerpt: as §1

HOP-92 = experiment: NCI 60 cell panel growth inhibition; details: NSCLC, read-out: anti-tumour activity GI50
Excerpt: as §1

SF-268 = experiment: NCI 60 cell panel growth inhibition; details: CNS, read-out: anti-tumour activity GI50
Excerpt: as §1

HS 578T = experiment: NCI 60 cell panel growth inhibition; details: BREAST, read-out: anti-tumour activity GI50
Excerpt: as §1

NCI-H322M = experiment: NCI 60 cell panel growth inhibition; details: NSCLC, read-out: anti-tumour activity GI50
Excerpt: as §1

CAKI-1 = experiment: NCI 60 cell panel growth inhibition; details: RENAL, read-out: anti-tumour activity GI50
Excerpt: as §1

CCRF-CEM = experiment: NCI 60 cell panel growth inhibition; details: Leukemia, read-out: anti-tumour activity GI50
Excerpt: as §1

NCI-H522 = experiment: NCI 60 cell panel growth inhibition; details: NSCLC, read-out: anti-tumour activity GI50
Excerpt: as §1

MDA-MB-231/ATCC = experiment: NCI 60 cell panel growth inhibition; details: BREAST, read-out: anti-tumour activity GI50
Excerpt: as §1

U251 = experiment: NCI 60 cell panel growth inhibition; details: CNS, read-out: anti-tumour activity GI50
Excerpt: as §1

435 = experiment: NCI 60 cell panel growth inhibition; details: BREAST, read-out: anti-tumour activity GI50
Excerpt: as §1

M14 = experiment: NCI 60 cell panel growth inhibition; details: MELAN, read-out: anti-tumour activity GI50
Excerpt: as §1

RXF 393 = experiment: NCI 60 cell panel growth inhibition; details: RENAL, read-out: anti-tumour activity GI50
Excerpt: as §1

A498 = experiment: NCI 60 cell panel growth inhibition; details: RENAL, read-out: anti-tumour activity GI50
Excerpt: as §1

MOLT-4 = experiment: NCI 60 cell panel growth inhibition; details: Leukemia, read-out: anti-tumour activity GI50
Excerpt: as §1

BT-549 = experiment: NCI 60 cell panel growth inhibition; details: BREAST, read-out: anti-tumour activity GI50
Excerpt: as §1

HCC2998 = experiment: NCI 60 cell panel growth inhibition; details: COLON, read-out: anti-tumour activity GI50
Excerpt: as §1

EKVX = experiment: NCI 60 cell panel growth inhibition; details: NSCLC, read-out: anti-tumour activity GI50
Excerpt: as §1

HCT-116 = experiment: NCI 60 cell panel growth inhibition; details: COLON, read-out: anti-tumour activity GI50
Excerpt: as §1

SNB-19 = experiment: NCI 60 cell panel growth inhibition; details: CNS, read-out: anti-tumour activity GI50
Excerpt: as §1

NCI/ADRRES = experiment: NCI 60 cell panel growth inhibition; details: BREAST, read-out: anti-tumour activity GI50
Excerpt: as §1

OVCAR-5 = experiment: NCI 60 cell panel growth inhibition; details: OVAR, read-out: anti-tumour activity GI50
Excerpt: as §1

HOP-62 = experiment: NCI 60 cell panel growth inhibition; details: NSCLC, read-out: anti-tumour activity GI50
Excerpt: as §1

PC-3 = experiment: NCI 60 cell panel growth inhibition; details: PROST, read-out: anti-tumour activity GI50
Excerpt: as §1

IGROV1 = experiment: NCI 60 cell panel growth inhibition; details: OVAR, read-out: anti-tumour activity GI50
Excerpt: as §1

NCl 60 cell panel = experiment: NCI 60 cell line panel antitumour activity (whole panel)
Excerpt: as §1

COc1cc(C(=O)OC(C(=O)NCCN2CCCC(Cl)C2)C2(C)CO2)c2cccc(C)c2c1 (centres unmarked) [Compound 20]
GI50 (RPMI-8226): 4.18 µM | GI50 (SK-MEL-28): 11.6 µM | GI50 (K562): 8.33 µM | GI50 (UCC-62): 14.7 µM | GI50 (SKOV-3): 19.7 µM | GI50 (ACHN): 1170 nM | GI50 (MCF7): 14.7 µM | GI50 (SK-MEL-5): 1560 nM | GI50 (SF-539): 6.27 µM | GI50 (NCI-H460): 13 µM | GI50 (DU-145): 4.49 µM | GI50 (OVCAR-4): 21.5 µM | GI50 (786-0): 100 µM | GI50 (SN12C): 6.76 µM | GI50 (OVCAR-3): 18.6 µM | GI50 (SK-MEL-2): 18.6 µM | GI50 (T-47D): 23 µM | GI50 (OVCAR-8): 44.5 µM | GI50 (SR): 2020 nM | GI50 (TK10): 23.4 µM | GI50 (HL-60(TB)): 6.98 µM | GI50 (HOP-92): 13.8 µM | GI50 (SF-268): 16.6 µM | GI50 (HS 578T): 17.5 µM | GI50 (NCI-H322M): 17.9 µM | GI50 (CAKI-1): 10.3 µM | GI50 (CCRF-CEM): 3.26 µM | GI50 (NCI-H522): 7.77 µM | GI50 (MDA-MB-231/ATCC): 14 µM | GI50 (U251): 7.82 µM | GI50 435: 14.3 µM | GI50 (M14): 100 µM | GI50 (RXF 393): 17.5 µM | GI50 (A498): 17.7 µM | GI50 (MOLT-4): 3000 nM | GI50 (BT-549): 12.5 µM | GI50 (HCC2998): 8.25 µM | GI50 (EKVX): 17.5 µM | GI50 (HCT-116): 100 µM | GI50 (SNB-19): 14.3 µM | GI50 (NCI/ADRRES): 11.1 µM | GI50 (OVCAR-5): 16.1 µM | GI50 (HOP-62): 100 µM | GI50 (PC-3): 11.2 µM | GI50 (IGROV1): 12.1 µM | GI50 (NCl 60 cell panel; MGMID line of the panel, read-out: anti-tumour activity GI50, MGMID): 12.3 µM | antitumour activity in the NCl 60 cell line panel (in words) (NCl 60 cell panel; wide range of human tumour cell lines): low micromolar to high nanomolar activity; also recorded: significant cytotoxicity in the low micromolar range
